System: Sprague Dawley rats in the FST
Experiment: Forced swimming test (FST)
Format: in vivo, rat
Conditions: 10 mg/kg subcutaneously, 24, 5, 1 h before testing
Source text: (A) 3-methoxy-PREG (43B) decreased rat immobility in the FST showing antidepressant activity. Results are expressed as mean±SEM (n=6-14). One-way ANOVA: Treatment (F5, 46: 4.30 P<0.01). ***P<0.001, *P<0.05 vs. water and sesame oil (Fisher LSD test). […] Results are expressed as mean±SEM (n=6-14). One-way ANOVA: Treatment (F5, 46: 3.57 P<0.01). **P<0.01, *P<0.05 vs. water and sesame oil (Fisher LSD test). […] One-way ANOVA: Treatment (F5, 46: 3.57 P<0.01). **P<0.01, *P<0.05 vs. water and sesame oil (Fisher LSD test).
Drugs were administered following the traditional dosing regimen used in the FST consisting of three injections: 24, 5, 1 h before testing.
The FST is currently the most widely used animal model for assessing depression related behavior and antidepressant drug activity in rodents (Cryan et al., Neubiorev. 2005). Rats are placed in an inescapable cylinder of water where they develop an immobile posture believed to reflect a “depressive”-like state. The time rats spend immobile is decreased by drugs exerting antidepressant activity.
Additional behaviors can be detected in the FST; namely, climbing and swimming. It has been shown that swimming behavior is sensitive to SSRIs such as fluoxetine whereas climbing is sensitive to norepinephrine re-uptake inhibitors (NRI) such as desipramine.

With CO[C@H]1CC[C@@]2(C)C(=CC[C@H]3[C@@H]4CC[C@H](C(C)=O)[C@@]4(C)CC[C@@H]32)C1 [3-methoxy-PREG, 3β-methoxy-pregna-5-ene-20-one] the “rat climbing behavior in the FST” value was “not changed”, the “rat immobility in the FST” value was “significantly decreased” and the “rat swimming in the FST” value was “significantly increased”.
